For orientation: IC50 means the concentration at which inhibition is half-maximal.

This note sets out measurements from patent US20080167330A1, “Carbamoylsulphoximides as protein kinase inhibitors” (priority 2006, published 2008).

What all share (type): biochemical
One assay concerns the target T1, CDK1/CycB (Homo sapiens, UniProt P06493).
T1 construct: GST; purchased ProQinase GmbH, Freiburg; host or cells: baculovirus-infected insect cells (Sf9)
Description: CDK1/CycB kinase assay. Conditions: 0.5 μM ATP. On the procedure:
Recombinant CDK1- and CycB-GST fusion proteins, purified from baculovirus-infected insect cells (Sf9), were purchased from ProQinase GmbH, Freiburg. The histone IIIS used as kinase substrate can be purchased from Sigma.
CDK1/CycB (5 ng/μL) was incubated in the presence of various concentrations of test substances (0 μM, and within the range 0.01-100 μM) in 40 μL of assay buffer [50 mM Tris/HCl pH 8.0, 10 mM MgCl2, 0.1 mM Na ortho-vanadate, 1.0 mM dithiothreitol, 0.025% PEG 20000, 0.5 μM ATP, 10 μM histone IIIS, 0.2 μCi/measurement point ^33P-gamma ATP, 0.05% NP40, 1.25% dimethyl sulphoxide] at 22° C. for 10 min. The reaction was stopped by adding EDTA solution (250 mM, pH 8.0, 15 μl/measurement point). 15 μl of each reaction mixture were loaded onto P30 filter strips (from Wallac), and non-incorporated ^33P-ATP was removed by washing the filter strips three times in 0.5% strength phosphoric acid for 10 min each time. After the filter strips had been dried at 70° C. for 1 hour, the filter strips were covered with scintillator strips (MeltiLex™ A, from Wallac) and baked at 90° C. for 1 hour. The amount of incorporated ^33P (substrate phosphorylation) was determined by scintillation measurement in a gamma radiation counter (Wallac).
(§1) The measured data were normalized to 0% inhibition (enzyme reaction without inhibitor) and 100% inhibition (all assay components except enzyme). The IC50 values were determined by means of a 4-parameter fit using the company's own software.

The next assay concerns the target T2, CDK2/CycE (Homo sapiens, UniProt P24941).
T2 construct: GST; purchased ProQinase GmbH, Freiburg; host or cells: baculovirus-infected insect cells (Sf9)
Description: CDK2/CycE kinase assay. Conditions: 0.5 μM ATP. On the procedure: Recombinant CDK2- and CycE-GST fusion proteins, purified from baculovirus-infected insect cells (Sf9), were purchased from ProQinase GmbH, Freiburg. The histone IIIS used as kinase substrate was purchased from Sigma. CDK2/CycE (1.25 ng/μL) was incubated in the presence of various concentrations of test substances (0 μM, and within the range 0.01-100 μM) in 40 μL of assay buffer [50 mM Tris/HCl pH 8.0, 10 mM MgCl2, 0.1 mM Na ortho-vanadate, 1.0 mM dithiothreitol, 0.5 μM ATP, 0.2% PEG20000, 10 μM histone IIIS, 0.2 μCi/measurement point ^33P-gamma ATP, 0.05% NP40, 1.25% dimethyl sulphoxide] at 22° C. for 10 min. The reaction was stopped by adding EDTA solution (250 mM, pH 8.0, 15 μl/measurement point).
15 μl of each reaction mixture were loaded onto P30 filter strips (from Wallac), and non-incorporated ^33P-ATP was removed by washing the filter strips three times in 0.5% strength phosphoric acid for 10 min each time.
After the filter strips had been dried at 70° C. for 1 hour, the filter strips were covered with scintillator strips (MeltiLex™ A, from Wallac) and baked at 90° C. for 1 hour. The amount of incorporated ^33P (substrate phosphorylation) was determined by scintillation measurement in a gamma radiation counter (Wallac).
as §1

For another assay, the target named is T3, human Aurora-C (Homo sapiens, UniProt Q9UQB9).
T3 construct: GST; made in house; host or cells: transiently transfected HEK293 cells
T3 sequence (Q9UQB9 1-309): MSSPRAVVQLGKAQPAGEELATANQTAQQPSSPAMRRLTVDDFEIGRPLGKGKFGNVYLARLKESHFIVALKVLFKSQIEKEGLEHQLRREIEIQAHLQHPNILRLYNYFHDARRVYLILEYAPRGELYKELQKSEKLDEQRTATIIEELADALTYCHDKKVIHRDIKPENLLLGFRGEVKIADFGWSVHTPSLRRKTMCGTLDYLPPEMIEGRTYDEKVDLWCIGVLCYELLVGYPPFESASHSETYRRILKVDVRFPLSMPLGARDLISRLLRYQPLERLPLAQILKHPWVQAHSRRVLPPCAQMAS
Put plainly: Aurora-C kinase assay (HTRF). Conditions: 10 μM ATP. The method, then: The Aurora-C inhibitory activity of the substances of this invention was measured in the Aurora-C-HTRF assay (HTRF=Homogeneous Time Resolved Fluorescence) described in the following paragraphs.
Recombinant fusion protein of GST and human Aurora-C was expressed in transiently transfected HEK293 cells and purified by affinity chromatography on glutathione-Sepharose. The substrate used for the kinase reaction was the biotinylated peptide biotin-Ttds-FMRLRRLSTKYRT (C terminus in amide form) which can be purchased for example from JERINI Peptide Technologies (Berlin). Aurora-C was incubated in the presence of various concentrations of test substances in 5 μL of assay buffer [25 mM Hepes/NaOH pH 7.4, 0.5 mM MnCl2, 2.0 mM dithiothreitol, 0.1 mM sodium orthovanadate, 10 μM adenosine triphosphate (ATP), […] substrate, 0.01% (v/v) TritonX-100 (Sigma), 0.05% (w/v) bovine serum albumin (BSA), 1% (v/v) dimethyl sulphoxide] at 22° C. for 60 min. The concentration of Aurora-C was adapted to the particular activity of the enzyme and adjusted so that the assay operated in the linear range. Typical concentrations were in the region of 0.3 nM. The reaction was stopped by adding 5 μl of a solution of HTRF detection reagents (0.2 μM streptavidin-XLent and 1.4 nM anti-phospho-(Ser/Thr)-Akt substrate-Eu-cryptate (Cis biointernational, France, product No. 61P02KAE), a Europium-cryptate-labelled phospho-(Ser/Thr)-Akt substrate antibody [product #9611B, Cell Signaling Technology, Danvers, Mass., USA]) in aqueous EDTA solution (40 mM EDTA, 400 mM KF, 0.05% (w/v) bovine serum albumin (BSA) in 25 mM HEPES/NaOH pH 7.0).
The resulting mixture was incubated at 22° C. for 1 h in order to allow formation of a complex of the biotinylated phosphorylated substrate and the detection reagents. The amount of phosphorylated substrate was then estimated by measuring the resonance energy transfer from the anti-phospho-(Ser/Thr)-Akt substrate-Eu cryptate to the streptavidin-XLent. For this purpose, the fluorescence emissions at 620 nm and 665 nm after excitation at 350 nm were measured in an HTRF measuring instrument, e.g. a Rubystar (BMG Labtechnologies, Offenburg, Germany) or a Viewlux (Perkin-Elmer). The ratio of the emissions at 665 nm and at 622 nm was taken as a measure of the amount of phosphorylated substrate. The data were normalized (enzymic reaction without inhibitor=0% inhibition, all other assay components but no enzyme=100% inhibition) and IC50 values were calculated with a 4-parameter fit using an inhouse software.
(TR-FRET usually uses a lanthanide donor and a delayed reading to cut background.)

T1 sequence (P06493 whole entry): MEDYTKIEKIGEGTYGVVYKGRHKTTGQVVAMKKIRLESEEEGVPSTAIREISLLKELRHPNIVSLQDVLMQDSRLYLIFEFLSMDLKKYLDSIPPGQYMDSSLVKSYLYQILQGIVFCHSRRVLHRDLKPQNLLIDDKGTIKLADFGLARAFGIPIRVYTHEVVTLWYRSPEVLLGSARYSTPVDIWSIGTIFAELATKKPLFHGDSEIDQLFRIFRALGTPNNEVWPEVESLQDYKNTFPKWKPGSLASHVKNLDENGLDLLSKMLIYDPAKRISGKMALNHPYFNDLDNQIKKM
T1 sequence (P14635 whole entry partner): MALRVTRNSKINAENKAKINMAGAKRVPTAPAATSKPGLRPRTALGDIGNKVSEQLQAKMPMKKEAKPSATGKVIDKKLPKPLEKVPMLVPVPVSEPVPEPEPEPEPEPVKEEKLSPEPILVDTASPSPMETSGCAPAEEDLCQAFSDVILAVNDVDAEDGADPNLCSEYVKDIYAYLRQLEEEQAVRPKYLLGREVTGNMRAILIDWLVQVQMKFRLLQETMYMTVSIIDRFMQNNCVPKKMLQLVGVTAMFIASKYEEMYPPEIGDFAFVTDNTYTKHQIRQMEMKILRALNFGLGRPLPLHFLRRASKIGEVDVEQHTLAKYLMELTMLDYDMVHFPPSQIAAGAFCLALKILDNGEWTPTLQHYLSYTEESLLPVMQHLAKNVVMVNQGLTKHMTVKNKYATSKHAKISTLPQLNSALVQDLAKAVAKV

Consider `C[C@@H](O)[C@@H](C)Nc1nc(Nc2ccc(C(=O)N=S(C)(C)=O)cc2)ncc1Br` [Example 18, N-{4-[(5-Bromo-4-{[(1R,2R)-2-hydroxy-1-methylpropyl]amino}pyrimidin-2-yl)amino]benzoyl}-S,S-dimethylsulphoximide], for which the values for the IC50 at CDK1/CycB, against CDK2/CycE and against human Aurora-C were 0.018 µM, 0.009 µM and 0.28 µM, respectively.
In the case of `C[C@@H](Nc1nc(Nc2ccc(C(=O)N=S(C)(C)=O)cc2)ncc1Br)C(C)(C)O` [Example 19, N-{4-[(5-Bromo-4-{[(R)-2-hydroxy-1,2-dimethylpropyl]amino}pyrimidin-2-yl)amino]benzoyl}S,S-dimethylsulphoximide], the IC50 against CDK1/CycB is 0.042 µM; against CDK2/CycE, 0.011 µM; against human Aurora-C it was 0.74 µM.
On the same counts, the results for `C[C@@H](O)[C@@H](C)Oc1nc(Nc2ccc(C(=O)N=S(C)(C)=O)cc2)ncc1Br` [Example 20, N-{4-[(5-Bromo-4-{[(1R,2R)-2-hydroxy-1-methylpropyl]oxy}pyrimidin-2-yl)amino]benzoyl}-S,S-dimethylsulphoximide] are 0.017 µM, 0.012 µM and 0.31 µM.
